Data from PubChem BioAssay AID1963427 (Molecular Pharmacology Branch, DTP, NCI, 2024).

Test system: 317291-083-R-J1-PDC complex spheroid growth
Test: Anticancer human tumor 317291-083-R-J1-PDC patient-derived soft tissue sarcoma cell line growth inhibition [Asc]
Settings: for IC50: curve of first compound; for viability, T/C: stronger effect = lower value
How it was run: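 Tumor cells were grown as multicellular spheroids with stromal HUVEC and mesenchymal stem cells and treated singly or in combination. Concentrations fell in half-log steps from the clinical Cmax, or from 10 microM where none was known.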

[1] = second compound 0.00316 µM, first compound 0.00316 µM
[2] = second compound 0.00316 µM, first compound 0.01 µM
[3] = second compound 0.00316 µM, first compound 0.0316 µM
[4] = second compound 0.00316 µM, first compound 0.1 µM
[5] = second compound 0.00316 µM, first compound 0.316 µM
[6] = second compound 0.00316 µM, first compound 1 µM
[7] = second compound 0.01 µM, first compound 0.00316 µM
[8] = second compound 0.01 µM, first compound 0.01 µM
[9] = second compound 0.01 µM, first compound 0.0316 µM
[10] = second compound 0.01 µM, first compound 0.1 µM
[11] = second compound 0.01 µM, first compound 0.316 µM
[12] = second compound 0.01 µM, first compound 1 µM
[13] = second compound 0.0316 µM, first compound 0.00316 µM
[14] = second compound 0.0316 µM, first compound 0.01 µM
[15] = second compound 0.0316 µM, first compound 0.0316 µM
[16] = second compound 0.0316 µM, first compound 0.1 µM
[17] = second compound 0.0316 µM, first compound 0.316 µM
[18] = second compound 0.0316 µM, first compound 1 µM
[19] = second compound 0.1 µM, first compound 0.00316 µM
[20] = second compound 0.1 µM, first compound 0.01 µM
[21] = second compound 0.1 µM, first compound 0.0316 µM
[22] = second compound 0.1 µM, first compound 0.1 µM
[23] = second compound 0.1 µM, first compound 0.316 µM
[24] = second compound 0.1 µM, first compound 1 µM
[25] = second compound 0.316 µM, first compound 0.00316 µM
[26] = second compound 0.316 µM, first compound 0.01 µM
[27] = second compound 0.316 µM, first compound 0.0316 µM
[28] = second compound 0.316 µM, first compound 0.1 µM
[29] = second compound 0.316 µM, first compound 0.316 µM
[30] = second compound 0.316 µM, first compound 1 µM
[31] = second compound 1 µM, first compound 0.00316 µM
[32] = second compound 1 µM, first compound 0.01 µM
[33] = second compound 1 µM, first compound 0.0316 µM
[34] = second compound 1 µM, first compound 0.1 µM
[35] = second compound 1 µM, first compound 0.316 µM
[36] = second compound 1 µM, first compound 1 µM
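Also: compound exposure lasted seven days after spheroids formed for three days.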
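For viability, T/C in this document: 100% = DMSO vehicle control wells.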

CCN1CCN(Cc2ccc(Nc3ncc(F)c(-c4cc(F)c5nc(C)n(C(C)C)c5c4)n3)nc2)CC1 + CNC(C)C(=O)NC1CN(S(=O)(=O)c2cccc(S(=O)(=O)N3CCC4CCC(C(=O)NC(c5ccccc5)c5ccccc5)N4C(=O)C(NC(=O)C(C)NC)C3)c2)CCC2CCC(C(=O)NC(c3ccccc3)c3ccccc3)N2C1=O
IC50 (second compound 0.00316 µM): 345 nM | IC50 (second compound 0.01 µM): 320 nM | IC50 (second compound 0.0316 µM): 140 nM | IC50 (second compound 0.1 µM): 71 nM | IC50 (second compound 0.316 µM): 18.1 nM | IC50 (second compound 1 µM): < 3.16 nM | viability, T/C [1]: 54.7% | viability, T/C [2]: 58.7% | viability, T/C [3]: 56.8% | viability, T/C [4]: 65% | viability, T/C [5]: 48.9% | viability, T/C [6]: 28% | viability, T/C [7]: 89.1% | viability, T/C [8]: 90% | viability, T/C [9]: 79.2% | viability, T/C [10]: 76% | viability, T/C [11]: 48.8% | viability, T/C [12]: 31.6% | viability, T/C [13]: 80.3% | viability, T/C [14]: 79.6% | viability, T/C [15]: 64.9% | viability, T/C [16]: 58.4% | viability, T/C [17]: 35.7% | viability, T/C [18]: 40.9% | viability, T/C [19]: 60.9% | viability, T/C [20]: 50.2% | viability, T/C [21]: 53.8% | viability, T/C [22]: 45.6% | viability, T/C [23]: 43.5% | viability, T/C [24]: 22.2% | viability, T/C [25]: 58.6% | viability, T/C [26]: 49.4% | viability, T/C [27]: 42.8% | viability, T/C [28]: 48% | viability, T/C [29]: 33.4% | viability, T/C [30]: 22.7% | viability, T/C [31]: 32.9% | viability, T/C [32]: 36.6% | viability, T/C [33]: 36.6% | viability, T/C [34]: 31.4% | viability, T/C [35]: 32.2% | viability, T/C [36]: 19.5%

Cn1ncnc1[C@H]1c2n[nH]c(=O)c3cc(F)cc(c23)N[C@@H]1c1ccc(F)cc1 + CNC(C)C(=O)NC1CN(S(=O)(=O)c2cccc(S(=O)(=O)N3CCC4CCC(C(=O)NC(c5ccccc5)c5ccccc5)N4C(=O)C(NC(=O)C(C)NC)C3)c2)CCC2CCC(C(=O)NC(c3ccccc3)c3ccccc3)N2C1=O
IC50 (second compound 0.00316 µM): < 0.316 nM | IC50 (second compound 0.01 µM): < 0.316 nM | IC50 (second compound 0.0316 µM): 21.8 nM | IC50 (second compound 0.1 µM): 17.2 nM | IC50 (second compound 0.316 µM): 1.01 nM | IC50 (second compound 1 µM): < 0.316 nM | viability, T/C (second compound 0.00316 µM, first compound 0.000316 µM): 3.79% | viability, T/C (second compound 0.00316 µM, first compound 0.001 µM): 4.39% | viability, T/C [1]: 4.26% | viability, T/C [2]: 4.44% | viability, T/C [3]: 4.58% | viability, T/C [4]: 4.39% | viability, T/C (second compound 0.01 µM, first compound 0.000316 µM): 45.2% | viability, T/C (second compound 0.01 µM, first compound 0.001 µM): 37.4% | viability, T/C [7]: 46.9% | viability, T/C [8]: 29.3% | viability, T/C [9]: 28.5% | viability, T/C [10]: 34.5% | viability, T/C (second compound 0.0316 µM, first compound 0.000316 µM): 79% | viability, T/C (second compound 0.0316 µM, first compound 0.001 µM): 86% | viability, T/C [13]: 82.5% | viability, T/C [14]: 57% | viability, T/C [15]: 40.3% | viability, T/C [16]: 52.7% | viability, T/C (second compound 0.1 µM, first compound 0.000316 µM): 95.4% | viability, T/C (second compound 0.1 µM, first compound 0.001 µM): 76.5% | viability, T/C [19]: 60.8% | viability, T/C [20]: 56.6% | viability, T/C [21]: 39.3% | viability, T/C [22]: 50.4% | viability, T/C (second compound 0.316 µM, first compound 0.000316 µM): 58.8% | viability, T/C (second compound 0.316 µM, first compound 0.001 µM): 55.7% | viability, T/C [25]: 36.8% | viability, T/C [26]: 41.6% | viability, T/C [27]: 28.9% | viability, T/C [28]: 35.9% | viability, T/C (second compound 1 µM, first compound 0.000316 µM): 34% | viability, T/C (second compound 1 µM, first compound 0.001 µM): 37.4% | viability, T/C [31]: 28.1% | viability, T/C [32]: 30.9% | viability, T/C [33]: 29.2% | viability, T/C [34]: 22.3%

O=C(c1ccc(F)c(F)c1Nc1ccc(I)cc1F)N1CC(O)([C@@H]2CCCCN2)C1 + CNC(C)C(=O)NC1CN(S(=O)(=O)c2cccc(S(=O)(=O)N3CCC4CCC(C(=O)NC(c5ccccc5)c5ccccc5)N4C(=O)C(NC(=O)C(C)NC)C3)c2)CCC2CCC(C(=O)NC(c3ccccc3)c3ccccc3)N2C1=O
IC50 (second compound 0.00316 µM): 203 nM | IC50 (second compound 0.01 µM): 244 nM | IC50 (second compound 0.0316 µM): 258 nM | IC50 (second compound 0.1 µM): 74.4 nM | IC50 (second compound 0.316 µM): 78.1 nM | IC50 (second compound 1 µM): < 3.16 nM | viability, T/C [1]: 75.5% | viability, T/C [2]: 69.5% | viability, T/C [3]: 63.3% | viability, T/C [4]: 71.5% | viability, T/C [5]: 37.5% | viability, T/C [6]: 13.9% | viability, T/C [7]: 100% | viability, T/C [8]: 73.2% | viability, T/C [9]: 75.2% | viability, T/C [10]: 91.7% | viability, T/C [11]: 39.8% | viability, T/C [12]: 23.4% | viability, T/C [13]: 92% | viability, T/C [14]: 72% | viability, T/C [15]: 73.6% | viability, T/C [16]: 90% | viability, T/C [17]: 43.1% | viability, T/C [18]: 14.7% | viability, T/C [19]: 72.3% | viability, T/C [20]: 83.5% | viability, T/C [21]: 56.3% | viability, T/C [22]: 49.9% | viability, T/C [23]: 19% | viability, T/C [24]: 8.71% | viability, T/C [25]: 60.1% | viability, T/C [26]: 63.7% | viability, T/C [27]: 47.8% | viability, T/C [28]: 47.9% | viability, T/C [29]: 38.6% | viability, T/C [30]: 7.49% | viability, T/C [31]: 37.1% | viability, T/C [32]: 42.3% | viability, T/C [33]: 37.9% | viability, T/C [34]: 33.5% | viability, T/C [35]: 14.8% | viability, T/C [36]: 5.83%
